Measured values from paper PMC5952258, “Identification of a Mycothiol-Dependent Nitroreductase from Mycobacterium tuberculosis” (ACS Infectious Diseases, 2018).

Target: Rv2466c (rRv2466c; Mrx-2) (Mycobacterium tuberculosis, UniProt O53193)
Sequence (O53193 whole entry): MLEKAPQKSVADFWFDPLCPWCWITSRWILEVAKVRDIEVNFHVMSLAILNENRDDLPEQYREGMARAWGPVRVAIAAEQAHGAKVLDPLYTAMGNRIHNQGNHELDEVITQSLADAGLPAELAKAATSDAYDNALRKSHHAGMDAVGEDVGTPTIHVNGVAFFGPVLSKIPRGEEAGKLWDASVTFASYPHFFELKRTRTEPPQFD

Q: With CC(=O)N[C@@H](CSSC[C@H](NC(C)=O)C(=O)N[C@H]1[C@@H](O[C@@H]2[C@H](O)[C@H](O)[C@@H](O)[C@H](O)[C@H]2O)O[C@H](CO)[C@@H](O)[C@@H]1O)C(=O)N[C@H]1[C@@H](O[C@@H]2[C@H](O)[C@H](O)[C@@H](O)[C@H](O)[C@H]2O)O[C@H](CO)[C@@H](O)[C@@H]1O [mycothione] as the compound, how does the melting temperature shift read?
A: MSSM also caused a significant shift in the melting temperature
